Results: US7629317B2, “Control of growth and repair of gastro-intestinal tissues by gastrokines and inhibitors” (The University of Chicago, priority 2001, dated 2009)
Entries after “also recorded” stand apart in the source; their conditions may differ.

What was measured:
[1] = tested on: Streptococcus agalactiae; experiment: Growth of other bacteria and fungi; type: cell-based
[2] = tested on: HeLa cells; experiment: Growth of HeLa cells (non-GI control); type: cell-based, human; settings: peptide up to 8 μg/ml
Description: To characterize the capacity of gastric and intestinal cells to respond to AMP-18, AGS gastric adenocarcinoma cells, HAE human gastric antrum mucosa primary cultures transformed with SV40 large T antigen, rat diploid small intestinal epithelial cells of the IEC-6 (FIG. 15) and IEC-18 lines, NCI N-87 gastric carcinoma cells, and SK-GT5 gastroesophageal adenocarcinoma cells were studied; human WI-38 fibroblasts and HeLa cells served as non-GI control cell lines. Mitogenesis was assayed by performing cell counts 3 to 4 days after exposing cells to the agent of interest, trypsinizing the culture to prepare single cells, and confirming this while counting them in a hemocytometer.

[3] = tested on: BSC-1 epithelial cell line; experiment: Growth (mitogenesis) assay on confluent BSC-1 cells, cells counted 4 days later; type: cell-based, monkey; settings: compared with related peptides
Text: Finding that a 42-amino acid peptide representing a central region of the novel antrum mucosal cell protein AMP-18 had mitogenic activity similar in character to that of the intact protein in pig and mouse antrum extracts (Table 1), has facilitated the characterization of the bio-active region of the molecule. […] Growth activity determinations have so far been accomplished with the kidney epithelial cell line as well as several gastric and intestinal lines.
Non-transformed monkey kidney epithelial cell line BSC-1 and other epithelial cell lines were used to assess effects on growth. In general, conditions were chosen for each line such that cells are grown to confluence in plastic dishes in supplemented growth medium with minimal calf (or fetal) serum for growth (Lieske et al., 1997); BSC-1 cells become confluent at 10^6/60 mm dish with 1% calf serum. At the start of the growth assay the medium on the confluent culture was aspirated and replaced with fresh medium with minimal serum to maintain viability (0.01% for BSC-1) cells. AMP-18 preparations were added to the culture medium and 4 days later the cell monolayer was rinsed, detached with trypsin, and the cells were counted using a hemocytometer. Determination of the capacity of AMP-18 to initiate DNA synthesis was measured by the incorporation of [^3H]thymidine (Toback, 1980); to confirm the DNA synthesis assay, autoradiograms of leveled cells were counted (Kartha and Toback, 1985).

[4] = tested on: Helicobacter pylori; experiment: Growth inhibition on a bacterial lawn (filter diffusion); type: cell-based; settings: solution on filter
Description: To determine if AMP peptide inhibits growth of H. pylori, a lawn of bacteria was prepared on a culture dish. A small circular filter was placed in the center of the dish, a solution of a test agent was placed on the filter so it diffused onto the lawn, and its effect on bacterial growth around the filter was measured. AMP peptide 77-97 (SEQ ID NO: 12) (Table 1), a scrambled version of this AMP peptide (negative control) (SEQ ID NO: 19), or the antibiotic clarithromycin (positive control) was added to a filter on different cultures. […] In addition, AMP peptide could serve as a therapeutic agent to treat H. pylori infections in the stomach, and thereby prevent the capacity of this organism to cause gastritis, gastric ulcers, and gastric adenocarcinomas.

[5] = tested on: Escherichia coli; experiment: Growth of other bacteria and fungi; type: cell-based
[6] = tested on: Caco2/bbe (C2) cells; experiment: Transepithelial electrical resistance (TER) of Caco2/bbe (C2) cell monolayers after injury; type: cell-based, human
Description: Panel A: When a stable TER was reached (330 Ω·cm^2) in MDCK cell monolayers the medium was changed to DMEM containing FBS (0.2%), and either peptide 77-97 (8 μg/ml) or EGF (50 ng/ml). After 18 hr, peptide 77-97 or EGF were added to the specified wells. One hour later monochloramine (0.1 mM), like the other agents, was added to the apical and basal compartments of the Transwell. […] Panels B, C: Caco2/bbe (C2) subclone monolayers were grown on collagen-coated polycarbonate filters until a stable TER was reached (225 Ω·cm^2). Spent medium was replaced with fresh medium containing FBS (0.1%) alone or with peptide 77-97 (8 μg/ml). After 18 hr, monochloramine (0.3 mM, B) or indomethacin (0.1 mM, C) was added to both compartments of the Transwell. At time 0, cultures received either vehicle (control), vehicle plus oxidant or indomethacin, or peptide 77-97 and oxidant or indomethacin. TER of injured cultures treated with vehicle decreased by ˜35% at 90 min, whereas peptide-treated cultures declined ˜10%.
C2 cell monolayers were grown in DMEM containing FBS (5%) and transferrin (10 μg/ml) on collagen-coated polycarbonate filters until a stable TER was reached (225 Ωcm^2). At time 0, cells were exposed to no DSS (control), or DSS (4%) in the upper compartment of the Transwell. AMP peptide 77-97 (8 μg/ml) was added to the upper and lower compartments of the Transwell 1 day prior to the addition of DSS at time 0. TER of DSS-injured cultures treated with vehicle decreased by ˜70% at 45 min, whereas peptide-treated cultures declined ˜10% at that time. […] Values are means for ≧6 cultures.
Confluent C2 cell monolayers were prepared on Transwells until a stable TER was established. Medium was replaced with fresh medium containing FBS (0.1%) alone (control), or with either rhAMP-18 (100 nanomolar) or peptide 77-97 (3.7 micromolar). After 18 hr, monochloramine (0.3 mM) was added to both compartments of the Transwell, and cultures received either vehicle (control), vehicle plus oxidant, rhAMP-18 and oxidant, or peptide 77-97 and oxidant, after which TER was measured.
To determine whether AMP peptide could speed recovery of TER after DSS-induced colonic cell injury, a highly sought-after functional characteristic of an agent designed to treat IBD, C2 cell monolayers were exposed to DSS (5%) for 10 min which reduced TER to 33±6% of the control value (FIG. 29, left panel). DSS was removed by aspirating the medium and replacing it with fresh medium. AMP peptide 77-97 (8 μg/ml) or vehicle was added to the culture medium, and TER was measured 18 hr later. In the presence of the vehicle, TER increased from 33% to 66±7% of the control value, whereas cells exposed to AMP peptide reached a value 112±4% of control.
To determine if the cytoprotective effect of AMP peptide is mediated at the level of the actin cytoskeleton, C2 cell monolayers were exposed to cytochalasin D, an agent known to disrupt actin filaments and compromise barrier function (Madara et al., 1986).
To determine if AMP peptide could play a cytoprotective role in GDS, a study was carried out in C2 cell monolayers that were exposed to the PA-I lectin. […] Next the effect of AMP peptide was studied in the mouse model of P. aeruginosa-induced-GDS (Laughlin et al., 2000) using female Balb/c mice subjected to 30% hepatectomy, injection of a solution of living P. aeruginosa into the cecum, and food deprivation postoperatively. All 8 of the mice survived surgery.

## LDALVKEKKLQGKGPGGPPPK [97–117, peptide 77-97 of the mature protein, same as 97-117 of the human precursor]
[1]
  growth of Streptococcus agalactiae: did not alter the growth
[2]
  growth stimulation of HeLa cells: does not stimulate growth
[2]; listed as AMP peptide
  growth stimulation of HeLa cells: failure
[3]; listed as peptide 97-107
  mitogenic activity (in words): equal to the 42-mer
[3]; listed as peptide 97-117
  mitogenic activity (in words): enhanced activity
[4]; listed as AMP peptide
  growth of H. pylori lawn: inhibited growth
[4]; listed as AMP peptide 77-97
  growth of H. pylori lawn: inhibited
[5]
  growth of Escherichia coli: did not alter the growth
[6]; 4 hr
  TER after PA-I lectin (in words): nearly unchanged
[6]; 4 hr, vehicle ~22%
  decline of TER after PA-I lectin: 0-5%
[6]; DSS 4%, 45 min, peptide 8 μg/ml 1 day prior, vehicle ~70%
  decline of TER of DSS-injured cultures: ~10%
[6]; DSS 5% for 10 min, peptide 8 μg/ml, vehicle 66±7%
  TER 18 hr after removal of DSS: 112±4 % of control
[6]; cytochalasin D 0.01 μg/ml, 2 hr, peptide 8 μg/ml 18 hr pretreatment, vehicle -34%, listed as AMP peptide
  TER after cytochalasin D: did not decline significantly; also recorded: prevented the decline
[6]; monochloramine 0.3 mM or indomethacin 0.1 mM, 90 min, peptide 8 μg/ml, vehicle ~35%
  decline of TER of injured cultures: ~10%
[6]; monochloramine 0.3 mM, 45 min, rhAMP-18 100 nanomolar or peptide 3.7 micromolar pre-treatment, oxidant alone ~35%
  decline in TER after monochloramine: ~10%
[6]; peptide 8 μg/ml
  effect on TER of non-injured cells: did not alter
